Test results from US20190075791A1, “ANTIMICROBIAL SURFACE COATING MATERIAL” (YEDITEPE UNIVERSITESI, priority 2015, published 2019).

What was measured:
Experiment in all cases: Modified disk diffusion method (chemicals)
Assay type in all cases: cell-based
Pseudomonas aeruginosa = details: disc diffusion on Nutrient Agar, 24 hours at 36±1 °C, PC = ofloxacin 10 μg/disc
Method: (§1) Modified disk diffusion method: Standard NCCLS disc diffusion method was used upon being modified in order to determine the antimicrobial activity of CG, T and ZP on each microorganism that is being tested. The 100 μl solution including 10^8 cfu/ml bacteria, 10^6 cfu/ml yeast and 10^4 spor/ml fungi was prepared with fresh cultures and inoculated with spreading method on Nutrient Agar (NA), Sabouraud Dextrose Agar (SDA) and Potato Dextrose Agar (PDA), respectively. 20 μl of sterile water was dropped on the empty discs, and was immersed into powder triclosan. 20 μl of chlorhexidine gluconate and zinc pyrithione were drawn and impregnated to the empty discs and placed on the inoculated petri dishes. Empty discs with 20 μl drop of sterile water were used as negative control. Ofloxacin (10 μg/disc) and nystatin (30 μg/disc) were used as positive control for bacteria and fungi, respectively. The petri dishes, which were inoculated and on which modified disc diffusion method was applied, were incubated for 24 hours for bacteria and 48 hours for yeasts at 36±1 ° C., and for 72 hours for fungi at 25±1 ° C. […] All tests were repeated at least twice.

Escherichia coli = details: disc diffusion on Nutrient Agar, 24 hours at 36±1 °C, PC = ofloxacin 10 μg/disc
Method: as §1

Staphylococcus aureus = details: disc diffusion on Nutrient Agar, 24 hours at 36±1 °C, PC = ofloxacin 10 μg/disc
Method: as §1

Fusarium oxysporum = details: disc diffusion on Potato Dextrose Agar, 72 hours at 25±1 °C, PC = nystatin 30 μg/disc
Method: as §1

Botrytis cinerea = details: disc diffusion on Potato Dextrose Agar, 72 hours at 25±1 °C, PC = nystatin 30 μg/disc
Method: as §1

[1] = system: Vancomycin-resistant Enterococcus (VRE); details: disc diffusion on Nutrient Agar, 24 hours at 36±1 °C, PC = ofloxacin 10 μg/disc
Method: as §1

Candida albicans = details: disc diffusion on Sabouraud Dextrose Agar, 48 hours at 36±1 °C, PC = nystatin 30 μg/disc
Method: as §1

Penicillium spp. = details: disc diffusion on Potato Dextrose Agar, 72 hours at 25±1 °C, PC = nystatin 30 μg/disc
Method: as §1

[2] = system: Methicillin-resistant Staphylococcus aureus (MRSA); details: disc diffusion on Nutrient Agar, 24 hours at 36±1 °C, PC = ofloxacin 10 μg/disc
Method: as §1

Aspergillus spp. = details: disc diffusion on Potato Dextrose Agar, 72 hours at 25±1 °C, PC = nystatin 30 μg/disc
Method: as §1

Candida glabrata = details: disc diffusion on Sabouraud Dextrose Agar, 48 hours at 36±1 °C, PC = nystatin 30 μg/disc
Method: as §1

| Compound | Antimicrobial activity (inhibition zone) (Pseudomonas aeruginosa) | Antimicrobial activity (inhibition zone) (Escherichia coli) | Antimicrobial activity (inhibition zone) (Staphylococcus aureus) | Antimicrobial activity (inhibition zone) (Fusarium oxysporum) | Antimicrobial activity (inhibition zone) (Botrytis cinerea) | Antimicrobial activity (inhibition zone) [1] | Antimicrobial activity (inhibition zone) (Candida albicans) | Antimicrobial activity (inhibition zone) (Penicillium spp.) | Antimicrobial activity (inhibition zone) [2] | Antimicrobial activity (inhibition zone) (Aspergillus spp.) | Antimicrobial activity (inhibition zone) (Candida glabrata) |
| --- | --- | --- | --- | --- | --- | --- | --- | --- | --- | --- | --- |
| Oc1cc(Cl)ccc1Oc1ccc(Cl)cc1Cl [T, Triclosan] | + | + | + | − | − | + | − | − | + | − | − |
| Zinc Pyrithione [ZP] | + | + | + | + | + | + | + | + | + | + | + |
| N=C(NCCCCCCNC(=N)NC(=N)Nc1ccc(Cl)cc1)NC(=N)Nc1ccc(Cl)cc1.O=C(O)[C@H](O)[C@@H](O)[C@H](O)[C@H](O)CO.O=C(O)[C@H](O)[C@@H](O)[C@H](O)[C@H](O)CO [CG, Chlorhexidine gluconate] | + | + | + | + | + | + | + | + | + | + | + |
